Measurements reported in the CheMixHub viscosity set.

Test: xn = mol fraction of the nth substance listed
Details: 101 kPa

CN(C)c1ccccc1 + CC(=O)CC(C)C
viscosity [mPa·s]
Details	303.15 K	308.15 K
x1 = 0.0745	0.632	0.557
x1 = 0.1256	0.711	0.628
x1 = 0.1856	0.8	0.711
x1 = 0.2652	0.906	0.813
x1 = 0.3202	0.971	0.875
x1 = 0.4012	1.052	0.953
x1 = 0.4852	1.108	1.013
x1 = 0.5612	1.143	1.049
x1 = 0.6504	1.165	1.072
x1 = 0.7214	1.167	1.079
x1 = 0.7958	1.168	1.079
x1 = 0.8625	1.169	1.081
x1 = 0.9125	1.17	1.086

Cn1ccnc1 + CCOC(C)=O
viscosity [mPa·s]
Details	298.15 K	308.15 K	318.15 K
x1 = 0.0518	0.4901	0.4509	0.417
x1 = 0.1042	0.5183	0.4734	0.4355
x1 = 0.2036	0.5796	0.524	0.4789
x1 = 0.3106	0.661	0.5919	0.5383
x1 = 0.4006	0.7306	0.6504	0.587
x1 = 0.4976	0.826	0.7281	0.6494
x1 = 0.6011	0.9571	0.8342	0.7376
x1 = 0.6961	1.09	0.9437	0.8289
x1 = 0.8012	1.266	1.082	0.9423
x1 = 0.9	1.468	1.245	1.074
x1 = 0.9496	1.57	1.331	1.144
